According to US20100256152A1, “NOVEL PHARMACEUTICAL COMPOSITION FOR TREATMENT OF SCHIZOPHRENIA” (ASTELLAS PHARMA INC., priority 2009, published 2010):
Counter-ions that a name gives are not always drawn.

Experiments:
BEC1 potassium channel = target: T1, BEC1 potassium channel (Homo sapiens, UniProt Q9ULD8); experiment: BEC1 inhibitory activity, 86Rb ion release from BEC1 expressing cells; format: cell-based; settings: BEC1 stably expressing CHO (dhfr-deficient) cells, 100 mM KCl stimulation, 86Rb release; as free form; read-out: IC50 (μM) (Example 1)
T1 construct: expressed in transfected cells
T1 sequence (Q9ULD8 1-1083): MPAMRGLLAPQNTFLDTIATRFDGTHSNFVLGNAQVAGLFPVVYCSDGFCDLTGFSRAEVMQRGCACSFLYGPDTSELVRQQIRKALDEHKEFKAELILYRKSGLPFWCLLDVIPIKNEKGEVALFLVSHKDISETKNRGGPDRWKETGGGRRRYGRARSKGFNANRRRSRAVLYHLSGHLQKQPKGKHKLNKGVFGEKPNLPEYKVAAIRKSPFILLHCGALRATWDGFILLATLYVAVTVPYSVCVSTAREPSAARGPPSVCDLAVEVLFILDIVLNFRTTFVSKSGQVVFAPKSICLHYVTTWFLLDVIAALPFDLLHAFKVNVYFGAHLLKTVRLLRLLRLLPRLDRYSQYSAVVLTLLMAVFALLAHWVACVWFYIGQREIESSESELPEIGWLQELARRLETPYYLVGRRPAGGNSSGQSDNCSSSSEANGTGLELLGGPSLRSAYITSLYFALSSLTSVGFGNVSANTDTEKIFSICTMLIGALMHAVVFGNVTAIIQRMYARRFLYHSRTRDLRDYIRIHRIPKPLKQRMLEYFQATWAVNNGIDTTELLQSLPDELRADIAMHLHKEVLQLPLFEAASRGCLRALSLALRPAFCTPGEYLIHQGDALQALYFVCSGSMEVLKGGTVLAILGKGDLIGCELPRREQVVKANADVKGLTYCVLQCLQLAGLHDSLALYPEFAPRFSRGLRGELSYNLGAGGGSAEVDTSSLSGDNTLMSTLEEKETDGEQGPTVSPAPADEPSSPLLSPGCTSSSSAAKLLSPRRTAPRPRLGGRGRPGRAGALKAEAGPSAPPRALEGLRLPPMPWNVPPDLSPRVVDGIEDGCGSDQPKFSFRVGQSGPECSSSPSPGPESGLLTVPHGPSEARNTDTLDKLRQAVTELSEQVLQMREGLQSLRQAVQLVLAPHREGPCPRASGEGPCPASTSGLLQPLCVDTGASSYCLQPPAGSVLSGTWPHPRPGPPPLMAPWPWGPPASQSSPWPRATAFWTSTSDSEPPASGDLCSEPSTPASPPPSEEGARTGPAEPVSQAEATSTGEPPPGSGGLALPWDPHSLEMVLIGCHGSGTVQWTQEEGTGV
Method: Method for measuring BEC1 inhibitory activity of compound utilizing 86Rb ion release amount as index
The channel activity of BEC1 was measured according to the method described in U.S. Pat. No. 6,326,168 or U.S. Pat. No. 7,375,222, herein incorporated by reference, utilizing the release of the ions of radioactive isotope 86Rb from BEC1 expressing cells as an index. Specifically, when BEC1 expressing cells which had taken in 86Rb ions were stimulated with 100 mM KCl, the radioactivity released from the same cells was designated as the channel activity of BEC1. 86Rb ions were incorporated into cells by culturing (3 hours, 37° C.) BEC1 stably expressing cells in the presence of 86RbCl (0.5 μCi/ml), and the unincorporated 86Rb ions were removed by washing the cells three times with HEPES buffered physiological saline (pH 7.4, 2.5 mM KCl). The same cells were incubated for 15 minutes at room temperature in the presence of a DMSO solution containing the test compound and HEPES buffered physiological saline, and then were further incubated for 5 minutes at room temperature in the presence of a 100 mM KCl-containing HEPES buffer solution (pH 7.4) containing the same compound. The extracellular fluid was recovered, and then the remaining cells were lysed in 0.1 N NaOH and recovered. The Cherenkov radioactivities of the extracellular fluid and the cell lysate were respectively measured, and the sum was designated as the total radioactivity. The release amount of 86Rb ions was expressed as the percentage of the radioactivity of the extracellular fluid with respect to the total radiation activity. The value obtained in the presence of the compound was designated as a test value, the value obtained in the absence of the compound was designated as a control value, and the value obtained when the cells were not stimulated with 100 mM KCl was designated as a blank value. […] In addition, as for the BEC1 expressing cells, BEC1 stably expressing cells produced according to the method described in U.S. Pat. No. 6,326,168 or U.S. Pat. No. 7,375,222, herein incorporated by reference, using a dihydrofolate reductase (dhfr)-deficient strain of Chinese Hamster ovary cells, were used.

[1] = system: methamphetamine induced hyperlocomotion; experiment: Methamphetamine induced hyperlocomotion model; format: in vivo, male ddY mouse; settings: smallest oral dose giving significantly small activity vs solvent group; mouse; as free form
Method: Verification of the therapeutic effect on schizophrenia was carried out using a methamphetamine induced hyperlocomotion model. Methamphetamine is a psychostimulant, and is known to cause symptoms that are similar to schizophrenia by increasing the transmission in the dopaminergic neurons. The abnormal behavior produced when methamphetamine is administered to an animal is generally used as a screening method for a therapeutic drug for schizophrenia (Oka et al., 1993, J. Pharmacol. Exp. Ther., 264:158-165, herein incorporated by reference). That is, a male ddY mouse was placed in an activity monitoring apparatus, and after 30 minutes, methamphetamine was administered. After administering methamphetamine, the mouse was immediately returned to the monitoring apparatus, and the activity for one hour from immediately after the return was measured. For the measurement of the activity, a Supermex sensor manufactured by Muromachi Kikai Co., Ltd. was used. […] The solvent used was a 0.5% aqueous solution of methylcellulose. The statistical analysis was carried out between the solvent administered group and the drug administered groups, using Dunnett's test.
The test compounds (1) to (5) all suppressed methamphetamine induced hyperlocomotion.

[2] = system: phencyclidine induced prolonged immobility; experiment: Phencyclidine induced prolonged immobility model (forced swimming test); format: in vivo, male ddY mouse; settings: mouse; for phencyclidine induced prolonged immobility improving action (in words): oral administration; for Minimum effective dose (mg/kg p.o.) (Example 3): smallest oral dose giving significantly short immobility time vs solvent group, 1 h after administration, as free form
Method: Verification of the therapeutic effect on schizophrenia was carried out using a phencyclidine induced prolonged immobility model. Phencyclidine is a non-competitive antagonist of the N-methyl-D-aspartate receptor, a type of glutamate receptor, and abuse of this agent causes development of psychotic symptoms indistinguishable from those of schizophrenia. […] Forced swimming test is used as a screening assay for antidepressants, because immobility in this test is thought to reflect some aspect of depression such as lowering of motivation. Negative symptoms of schizophrenia also includes similar aspects, we could evaluate the efficacy of drugs for negative symptoms, such as apathy, using this test. Briefly, a male ddY mouse was gently placed in a cylindrical pool, and activity was measured for 3 min with SCANET (MV20-LAN, MELQUEST). Afterward immobility time was calculated with the SCANET file integrating software. Two days later, Mice were anesthetized with sodium pentobarbital. The Osmotic mini pumps (Alzet model 1002, DURECT Corporation) were subcutaneously implanted to mice. The pump infused saline or phencyclidine 1.2 mg/day/mouse with pumping rate of 0.25 μL/hour. Fourteen days after implantation, a test compound was administered to mice and an hour after administration, each mouse was gently placed in a cylindrical pool, and activity was measured for 3 min. Afterward immobility time was calculated. […] The solvent used was a 0.5% aqueous solution of methylcellulose. The statistical analysis was carried out between the solvent administered group and the drug administered groups, using Dunnett's test.

[3] = system: phencyclidine induced prolonged finding latency; experiment: Water finding task in mice after neonatal treatment with phencyclidine; format: in vivo, male ddY mice; settings: mouse; for phencyclidine induced prolonged finding latency improving action (in words): oral administration; for Minimum effective dose (mg/kg p.o.) (Example 4): smallest oral dose giving significantly short finding latency vs solvent group, as free form
Method: Verification of the therapeutic effect on schizophrenia was carried out using a water finding task in mice after neonatal treatment with phencyclidine. […] In addition, it has been reported that chronic treatment of PCP prolonged finding latency in the water-finding task (Mouri et al., 2007, Mol. Pharmacol., 180:152-60, herein incorporated by reference). Finding latency in the water-finding task provides a measure of latent learning in animals, which is thought to reflect attention. Attention is one of the most important domain of cognitive impairments in schizophrenia, we could evaluate the efficacy of drugs for cognitive impairments in schizophrenia using this task. Briefly, male ddY mice subcutaneously received PCP at a dose of 15 mg/kg or saline on postnatal day 7, 9 and 11. During the adult 7 weeks old, test compounds were orally administered to animals and 60 minutes later, the animals were placed in one corner of the open field and allowed to freely explore the training apparatus for 3 min. Immediately after the training trial, the animals were returned to their home cage and deprived of water until the test trial the next day. In the test trial, the mice were again placed individually in the test apparatus. The time between entering the alcove and drinking the water was measured. […] The solvent used was a 0.5% aqueous solution of methylcellulose. The statistical analysis was carried out between the solvent administered group and the drug administered groups, using Dunnett's test.

IC50 (BEC1 potassium channel) [µM] | SMILES | Minimum effective dose (mg/kg p.o.) (Example 2) [1] | further results
– | Fc1ccc(Nc2nc(NCc3ncccn3)nc(Nc3ccc(F)cc3)n2)cc1 (as salt: HCl) [Compound 2a, N,N′-bis(4-fluorophenyl)-N″-(pyrimidin-2-ylmethyl)-1,3,5-triazine-2,4,6-triamine] | – | melting point: 183 to 186 °C
0.077 | Fc1ccc(Nc2nc(NCc3ncccn3)nc(Nc3ccccc3)n2)cc1 [Compound 1, N-(4-fluorophenyl)-N′-phenyl-N″-(pyrimidin-2-ylmethyl)-1,3,5-triazine-2,4,6-triamine] | 0.1 | phencyclidine induced prolonged immobility improving action (in words) [2]: suppressed phencyclidine induced prolongation of immobility time; Minimum effective dose (mg/kg p.o.) (Example 3) [2]: 0.03 mg/kg p.o.; phencyclidine induced prolonged finding latency improving action (in words) [3]: suppressed phencyclidine induced prolongation of finding latency; Minimum effective dose (mg/kg p.o.) (Example 4) [3]: 0.03 mg/kg p.o.
0.065 | Fc1ccc(Nc2nc(NCc3ncccn3)nc(Nc3ccc(F)cc3)n2)cc1 [Compound 2a, N,N′-bis(4-fluorophenyl)-N″-(pyrimidin-2-ylmethyl)-1,3,5-triazine-2,4,6-triamine] | 0.03 | –
– | Fc1ccc(Nc2nc(NCc3ncccn3)nc(Nc3ccc(F)cc3)n2)cc1 [Compound 2b, N,N′-bis(4-fluorophenyl)-N″-(pyrimidin-2-ylmethyl)-1,3,5-triazine-2,4,6-triamine] | – | phencyclidine induced prolonged immobility improving action (in words) [2]: suppressed phencyclidine induced prolongation of immobility time; Minimum effective dose (mg/kg p.o.) (Example 3) [2]: 0.01 mg/kg p.o.; phencyclidine induced prolonged finding latency improving action (in words) [3]: suppressed phencyclidine induced prolongation of finding latency; Minimum effective dose (mg/kg p.o.) (Example 4) [3]: 0.01 mg/kg p.o.
0.092 | COc1ccc(Nc2nc(NCc3ncccn3)nc(Nc3ccc(F)cc3)n2)cc1 [Compound 3, N-(4-fluorophenyl)-N′-(4-methoxyphenyl)-N″-(pyrimidin-2-ylmethyl)-1,3,5-triazine-2,4,6-triamine] | 0.03 | –
0.058 | Fc1ccc(Nc2nc(NCc3ccncn3)nc(Nc3ccc(F)cc3)n2)cc1 [Compound 4, N,N′-bis(4-fluorophenyl)-N″-(pyrimidin-4-ylmethyl)-1,3,5-triazine-2,4,6-triamine] | 0.01 | –
– | Cl.Fc1ccc(Nc2nc(NCc3ccnc(F)c3)nc(Nc3ccccc3)n2)cc1 [Compound 5, N-(4-fluorophenyl)-N′-[(2-fluoro-4-pyridyl)methyl]-N″-phenyl-1,3,5-triazine-2,4,6-triamine hydrochloride] | 1.0 | –
0.24 | Cc1ccc(Nc2nc(NCc3ccnc(F)c3)nc(Nc3ccc(F)cc3)n2)cc1 [Compound 7, N-(4-fluorophenyl)-N′-[(2-fluoro-4-pyridyl)methyl]-N″-(4-methylphenyl)-1,3,5-triazine-2,4,6-triamine hydrochloride] | – | –
0.17 | COc1ccc(Nc2nc(NCc3ccnc(F)c3)nc(Nc3ccc(F)cc3)n2)cc1 [Compound 8, N-(4-fluorophenyl)-N′-[(2-fluoro-4-pyridyl)methyl]-N″-(4-methoxyphenyl)-1,3,5-triazine-2,4,6-triamine hydrochloride] | – | –
0.25 | COc1cccc(Nc2nc(NCc3ccnc(F)c3)nc(Nc3ccc(F)cc3)n2)c1 [Compound 10, N-(4-fluorophenyl)-N′-[(2-fluoro-4-pyridyl)methyl]-N″-(3-methoxyphenyl)-1,3,5-triazine-2,4,6-triamine hydrochloride] | – | –
